Data on four compounds can be found in publication PMC11279629, “Identification of Dihydropyrazolo[1,5-a]pyrazin-4(5H)-ones as Cyclic Products of β-Amidomethyl Vinyl Sulfone Alphavirus Cysteine Protease Inhibitors” (Pharmaceuticals, 2024).

Data set [1] can be described thus: GSH capture assay. The format is physicochemical. The following applies: GSH (100×), phosphate buffer pH 7.4, 30 °C.
Data set [2] in a line: Pharmacokinetics in mice, 10 mg/kg i.v. The format is in vivo, Male CD1 mice. The note with it: for half-life: plasma, 10 mg/kg. As for the experimental part: Although vinyl sulfones have been used as covalent warheads for inhibition of a wide range of cysteine proteases, there are relatively few reports of their use in vivo [14].
Blood samples were centrifuged at 4000× g for 5 min at 4 °C to obtain plasma. The plasma samples from each time point were pooled and then analyzed by LCMS/MS. The PK parameters were estimated by a non-compartmental model using WinNonlin 8.3.

The nature of data set [3]: Storage stability as solid or 10 mM DMSO stock solution.
The subject of data set [4] is VEEV nsP2 protease. The following applies: cited from earlier work.
In data set [5] the test system is VEEV. The following applies: read-out: VEEV EC50 (alphavirus replication); cited from earlier work.

Structures can show the parent of a compound that is named as a salt. Where two headings read alike, the source gives them in different places.

In the case of `CS(=O)(=O)CC1CNC(=O)c2cc(NS(=O)(=O)c3ccccc3)nn21` (stereo not shown) (as salt: TFA) [Compound 8, N-(7-((methylsulfonyl)methyl)-4-oxo-4,5,6,7-tetrahydropyrazolo[1,5-a]pyrazin-2-yl)benzenesulfonamide], the melting point (in general, the temperature, or range, at which the solid turns liquid) is 222 °C.
As to `CCOc1ccccc1-c1cc2n(n1)C(CS(C)(=O)=O)CNC2=O` (stereo not shown) [Compound 2, 2-(2-ethoxyphenyl)-7-((methylsulfonyl)methyl)-6,7-dihydropyrazolo[1,5-a]pyrazin-4(5H)-one], the “GSH-Adduct Formation (%)” value in data set [1] (8 h) amounted to 0%. Besides, the “Plasma exposure relative to 1” value in data set [2] came out at 4 fold. The AUC(0-t) (usually the area under the concentration-time curve up to a stated or last time point) in data set [2] (male, CD1, mouse, iv, pooled plasma) amounted to 3800 ng·h/mL. Further, the half-life in data set [2] (male, CD1, mouse, iv, pooled plasma, read-out: T1/2 (converted)) is 30.6 min. In data set [2] (male, CD1, mouse, iv, read-out: i.v. half-life), the half-life was about 30 min. Besides, in data set [2] (pooled plasma), the Clobs is on record as 44 mL/min/kg and the Vssobs is recorded as 0.32 L/kg. In addition, the Stability upon storage entry in data set [3] was “stable”.
Regarding `CS(=O)(=O)CC1CNC(=O)c2cc(NS(=O)(=O)c3ccccc3)nn21` (stereo not shown) [Compound 8, N-(7-((methylsulfonyl)methyl)-4-oxo-4,5,6,7-tetrahydropyrazolo[1,5-a]pyrazin-2-yl)benzenesulfonamide], the “GSH-Adduct Formation (%)” value was found to be 3% in data set [1] (8 h) and 6% in data set [1] (24 h).
`C[C@@H]1CC(C)(C)Nc2c(C(=O)NC/C=C/S(C)(=O)=O)cccc21` [Compound #11]: the “VEEV nsP2 protease activity inhibition” value in data set [4] is reported as “micromolar inhibitor”. Moreover, the EC50 (commonly the concentration that produces a half-maximal response) in data set [5] was 1400 nM.
